The source of these data is patent publication US11124818B2 (priority 2017, dated 2021).

The test system of series [1] is type 1 protein phosphatases. The note with it: cited from earlier work.
Series [2] has as its system OATP1B3-expressing HeLa and RKO cells. The note with it: cited from earlier work.
Series [3] has as its system OATP1B1-expressing HeLa and RKO cells. Type of series: cell-based.
For series [4] the test system is unchanged. The note with it: cited from earlier work.
Another series has as its system human tumor cell lines. Conditions: cited from earlier work.

Starred links: 1 amine or outer side, 2 acyl side, 3 side chain; linkers in the order of their positions; H or OH if unused. Positions of bridges follow the written chain, without caps; N, C: chain ends. Non-standard residues stand in square brackets, D forms with d. Residues, ends and D or L forms follow the SMILES beside them. *: point of attachment. Adda = CO[C@@H](Cc1ccccc1)[C@@H](C)/C=C(C)/C=C/[C@H](N[*:1])[C@H](C)C(=O)[*:2]; dAsp(3S-Me) = C[C@H](C(=O)[*:3])[C@@H](N[*:1])C(=O)[*:2]; Dolaproine = CO[C@@H]([C@@H]1CCCN1)[C@@H](C)C(=O)O; Dil = CC[C@H](C)[C@H](NC)[C@@H](CC(=O)O)OC; d(γGlu) = O=C(O)[C@@H](CCC(=O)[*:2])N[*:1]; X2 = C[C@@H](N*)[C@@H](O)c1ccccc1; NMeV = CN[C@H](C(=O)O)C(C)C; NMeDha = C=C(NC)C(=O)O A value given as a limit tells only on which side of the number the result lay.

For orientation: IC50 means the point on the concentration scale where inhibition reaches its midpoint. Take `C=C1C(=O)N[C@H](C)C(=O)N[C@@H](CC(C)C)C(=O)N[C@@H](C(=O)O)[C@H](C)C(=O)N[C@@H](CCCNC(=N)N)C(=O)N[C@@H](/C=C/C(C)=C/[C@H](C)[C@H](Cc2ccccc2)OC)[C@H](C)C(=O)N[C@@H](C(=O)O)CCC(=O)N1C` [LR, microcystin-LR] (R[Adda][d(γGlu)][NMeDha][dA]L[dAsp(3S-Me)]-OH; lactam N-7): the results for the IC50 in series [1], in series [2] and in series [4] were 0.03 nM, 5.1 nM and 1 nM, respectively. In addition, the “Ratio 1B1 to 1B3” value in series [3] came to 0.2.

Take `CC[C@H](C)[C@@H]([C@@H](CC(=O)N1CCC[C@H]1[C@H](OC)[C@@H](C)C(=O)N[C@H](C)[C@@H](O)c1ccccc1)OC)N(C)C(=O)[C@@H](NC(=O)[C@@H](NC)C(C)C)C(C)C` [Monomethyl auristatin E] (H-[NMeV]V[Dil][Dolaproine]-X2): the cytotoxic potency with human tumor cell lines is 3.9 to 10.3 nM.

In the case of `C/C=C1/C(=O)N[C@@H](C(=O)O)[C@H](C)C(=O)N[C@@H](CCCNC(=N)N)C(=O)N[C@@H](/C=C/C(C)=C/[C@H](C)[C@H](Cc2ccccc2)OC)[C@H](C)C(=O)N[C@@H](C(=O)O)CCC(=O)N1C` [NOD, Nodularin], the IC50 in series [2] is over 100 nM; in series [4], 8.4 nM. Further, the “Ratio 1B1 to 1B3” value in series [3] was under 0.1.
